Data taken from paper PMC7939384, “In crystallo screening for proline analog inhibitors of the proline cycle enzyme PYCR1” (The Journal of Biological Chemistry, 2021).
“And” between values parts separate entries of the source, which are not always exact repeats. Equal values may be shown once.

Tests used:
human PYCR1 = target: T1, human PYCR1 (Homo sapiens, UniProt P32322); assay: biochemical; conditions: for Ki: competitive with P5C, NADH fixed 175 μM
T1 sequence (P32322 1-300): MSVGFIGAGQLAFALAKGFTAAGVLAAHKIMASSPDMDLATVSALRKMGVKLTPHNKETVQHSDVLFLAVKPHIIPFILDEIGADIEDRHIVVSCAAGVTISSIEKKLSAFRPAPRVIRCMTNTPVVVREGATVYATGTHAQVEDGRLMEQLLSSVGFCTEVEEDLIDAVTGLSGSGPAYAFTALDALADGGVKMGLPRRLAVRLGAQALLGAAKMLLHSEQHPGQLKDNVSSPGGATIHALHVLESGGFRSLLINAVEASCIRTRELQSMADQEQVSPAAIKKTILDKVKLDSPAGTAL
Experimental: Over two dozen proline analogs (Fig. 2) were screened using electron density from X-ray crystallography as the readout for binding to human PYCR1. […] Because the compounds bind in the P5C/proline site, the mechanism of inhibition was assumed to be competitive with P5C. Therefore, steady-state kinetic measurements were performed with L-P5C as the variable substrate (0-1000 μM) and NADH fixed (175 μM) (Fig. 3). For each compound, the data were fit globally to a competitive inhibition model (Equation 1) to obtain an inhibition constant, Ki.
B, THFA. C, CPC. D, T4C. E, T2C. F, NFLP. The data were measured in 50 mM Tris (pH 7.5) with 1 mM EDTA disodium salt while holding NADH fixed at 175 μM and varying D,L-P5C (0–2000 μM). The concentration of the substrate L-P5C was considered to be half the total D,L-P5C concentration added to the assays. Curves represent global fits of the data to a competitive inhibition model showing initial velocity in units of µM [NAD^+] s^−1 as a function of L-P5C concentration (µM).
A C-terminal truncation variant of human PYCR1, which includes residues 1–300 of the full-length 319-residue enzyme, was used for kinetics and X-ray crystallography ([18]). PYCR1 was overexpressed in Escherichia coli BL21 (DE3) competent cells and purified using methods similar to those previously reported ([18]). Harvested cells were lysed via sonication in a mixture containing DNase I, lysozyme, and 0.2 mM phenylmethylsulfonyl fluoride protease inhibitor, and then the insoluble material was removed via centrifugation at 16,000 rpm for 1 h at 4°C. The resulting lysate was purified by gravity-flow chromatography on a column containing Ni^2+–nitrilotriacetic acid resin (Qiagen) pre-equilibrated with binding buffer consisting of 50 mM HEPES, 300 mM NaCl, 10 mM imidazole, and 5% (w/v) glycerol at pH 7.8 (buffer A). The column was washed with buffer A supplemented with 30 mM imidazole, and then the bound protein was eluted with buffer A supplemented with 300 mM imidazole. Elution fractions containing PYCR1 were identified by SDS-PAGE and prepared for further purification by size-exclusion chromatography by dialyzing into 300 mM NaCl, 2% (w/v) glycerol, and 50 mM HEPES at pH 7.5. Size-exclusion chromatography was performed on a HiLoad 16/600 Superdex 200 column equilibrated with 50 mM HEPES, pH 7.8, 300 mM NaCl, and 5% (w/v) glycerol. Purified PYCR1 was concentrated to 8 mg/ml and stored at 4°C for subsequent crystallization trials.
Kinetic measurements were performed in a BioTek Epoch 2 microplate spectrophotometer using Corning 96-well UV-transparent microplates. Activity assays were performed by monitoring the consumption of NADH at 340 nm (ε340 = 6220 M^−1 cm^−1) using P5C as the substrate. D,L-P5C was synthesized as described previously ([45]), quantified using o-aminobenzaldehyde (o-AB), and stored in 1 M HCl at 4°C. Neutralization of D,L-P5C to pH 7.5 was performed immediately prior to assays using 1 M Tris (pH 7.5) and 6 M NaOH. The concentration of the substrate L-P5C was assumed to be half the total D,L-P5C concentration added to the assays.
The following microplate protocol was employed. Substrate mixtures containing P5C, NADH, EDTA, and Tris buffer were prepared in a deep well block for each P5C concentration. Mixtures containing enzyme and various concentrations of the inhibitor were prepared in microcentrifuge tubes and incubated on ice in buffer containing 50 mM HEPES pH 7.8, 300 mM NaCl, and 5% (w/v) glycerol. The final concentration of PYCR1 in the assay was 6.25 nM. Twenty μl of the enzyme-analog mixture was added to microplate wells using a single-channel pipette, and then the reaction was initiated by addition of 180 μl of the substrate mixtures using a multi-channel pipettor. The reaction traces were followed for 35 min.

[1] = system: MCF10A hRAS^V12 spheroids; assay: Intracellular proline abundance in spheroids (GC-MS); type: cell-based; conditions: 5 mM, 5 days
[2] = target: T2, E. coli PutA PRODH domain (EcPutA86-630) (Escherichia coli, UniProt P09546); assay: PRODH activity assay (o-AB/P5C adduct at 443 nm); type: biochemical; conditions: 100 mM NFLP as substrate; 0, 1, 5 or 10 mM NFLP with 100 mM L-proline
T2 construct: Proline Utilization A from E. coli (EcPutA86-630)
T2 sequence (P09546 86-630): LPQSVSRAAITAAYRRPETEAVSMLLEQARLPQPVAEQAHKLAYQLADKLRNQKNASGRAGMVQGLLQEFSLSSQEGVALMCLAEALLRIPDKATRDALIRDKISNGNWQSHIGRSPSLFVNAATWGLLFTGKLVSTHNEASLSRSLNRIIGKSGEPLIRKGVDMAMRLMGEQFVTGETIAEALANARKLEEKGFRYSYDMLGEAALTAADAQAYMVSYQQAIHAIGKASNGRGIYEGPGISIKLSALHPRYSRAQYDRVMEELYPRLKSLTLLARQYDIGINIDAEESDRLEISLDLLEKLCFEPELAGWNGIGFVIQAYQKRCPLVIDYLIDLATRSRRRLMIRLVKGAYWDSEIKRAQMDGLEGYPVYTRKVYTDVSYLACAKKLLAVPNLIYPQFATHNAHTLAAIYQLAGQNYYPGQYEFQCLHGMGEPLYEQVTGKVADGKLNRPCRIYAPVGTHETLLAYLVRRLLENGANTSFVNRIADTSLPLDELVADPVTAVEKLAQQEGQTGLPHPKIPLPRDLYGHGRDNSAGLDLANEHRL
Experimental: The rates have been normalized to the rate obtained in the absence of NFLP.
Assays were performed to test whether NFLP is a substrate or inhibitor of PRODH. Because of challenges in obtaining active recombinant human PRODH, which is an inner mitochondrial membrane protein, these experiments used the PRODH domain of the bifunctional proline catabolic enzyme, Proline Utilization A from E. coli (EcPutA86-630). The active sites of human and bacterial PutA PRODH domains are very highly conserved. For example, all residues that contact proline analog inhibitors in crystal structures of bacterial PRODHs are identically present in human PRODH, as we described previously ([6]). Thus, bacterial PRODHs are considered to be good surrogates for identifying inhibitors of human PRODH. Indeed, the inhibitors discovered using bacterial PRODHs show on-target activity in cancer cells and animal models of cancer ([5], [21]).
PRODH activity was measured in a BioTek Epoch 2 microplate spectrophotometer by monitoring P5C as the adduct formed by the reaction with o-AB at 443 nm. The assays were conducted at 25°C in 20 mM MOPS, pH 7.5, and 10 mM MgCl2 with 4 mM o-AB, 0.15 mM menadione (electron acceptor to re-oxidize the FAD), and 1.3 μM of EcPutA86-630. The enzyme mixture contained EcPutA86-630, o-AB, menadione, and buffer. […]

Which results are given for `O=CN1CCC[C@H]1C(=O)O` [NFLP, N-formyl L-proline]?
Ki (human PYCR1; Ki (estimated), rounded values): 100 µM and ~100 µM; Ki (human PYCR1; Ki, 50 mM Tris pH 7.5, global fit): 99 ± 7.7 µM; binding free energy equivalent of the affinity increase (human PYCR1; NFLP relative to proline): ~1.7 kcal/mol; increase in affinity by addition of the formyl group to proline (human PYCR1; NFLP relative to proline): 17 fold; kcat (human PYCR1; kcat for L-P5C at fixed NADH 175 μM, global fit of the data set with this analog): 52 ± 2 s⁻¹; increase of intracellular proline abundance compared with THFA [1]: about 10 fold; increase of intracellular proline abundance compared with control [1]: ~40 fold; substrate or inhibitor of bacterial PRODH (in words) [2]: neither a substrate nor an inhibitor
